pIC50: −log10 of the molar value. Converted amounts (≈) assume the structure as drawn.
Key:
[1] = tested on: normal human endothelial cells; parameters: method as in PMID 30284980; conditions: cited from earlier work
cancer cell lines = tested on: cancer cell lines; parameters: method as in PMID 30284980; conditions: range depending on the cancer cell line; cited from earlier work
HeLa = experiment: Neutral red uptake assay, HeLa; format: cell-based; conditions: Homo sapiens, 72 h incubation
Experimental: (§1) To all media (except for RPTEC), 2.5 µg mL^−1 amphotericin B, 100 U mL^−1 penicillin, and 100 µg mL^−1 streptomycin were added.
(§2) The cells were put in 96-well plates (1 × 10^5 cells per mL) of appropriate culture medium (100 µL per well). Before a general experiment, cells were attached for 24 h and then treated with various concentrations (500, 250, 100, and 10 µM) of pyrimidine derivatives and subsequently grown in 200 µL medium volume. […] The neutral red uptake assay was performed according to Repetto et al.. This method uses the ability of the living cells to accumulate dye in their lysosomes. […] Finally, the absorbance was measured at 540 nm using a Thermo Scientific™ Multiskan™ GO Microplate Spectrophotometer (Thermo Fisher).
(§3) The viability tests were conducted in quadruple wells (n = 4) for each condition. Values are presented as mean ± standard deviation (SD). Significant differences were calculated using one-way ANOVA, followed by post hoc comparison, and the half-maximal inhibitory concentration (IC50) was obtained by nonlinear regression using GraphPad Prism 9.1 for Windows, GraphPad Software, La Jolla, California, USA, www.graphpad.com.

HepaRG = experiment: Neutral red uptake assay, HepaRG; format: cell-based, human; conditions: 72 h incubation
Experimental: as §1, §2, §3

Caco-2 = experiment: Neutral red uptake assay, Caco-2; format: cell-based; conditions: Homo sapiens, 72 h incubation
Experimental: as §1, §2
as §3, with “www.graphpad.com. A p-value < 0.05 was considered statistically significant.” for “www.graphpad.com.”

AGS = experiment: Neutral red uptake assay, AGS; format: cell-based; conditions: Homo sapiens, 72 h incubation
Experimental: as §1, §2, §3

A172 = experiment: Neutral red uptake assay, A172; format: cell-based; conditions: Homo sapiens, A 172, 72 h incubation
Experimental: as §1, §2, §3

Candida albicans = experiment: Antimicrobial activity, broth microdilution MIC; format: cell-based; conditions: tested 256 to 0.5 µg mL^−1, 24 h, '-' not defined, no MIC in tested range, read-out: MIC C. albicans
[2] = Neutral red uptake assay, viability of normal RPTEC cells; format: cell-based; conditions: human, 72 h treatment, vs control with 1% DMSO = 100%, read-out: Viability of RPTEC cell line
Experimental: For cytotoxicity assays, the following cell lines were used: human renal proximal tubule epithelial cells (RPTEC-MTOX1030), epithelioid cervix carcinoma (HeLa-93021013), colon adenocarcinoma (Caco-2-86010202), hepatocarcinoma (HepaRG-MTOX1010), gastric adenocarcinoma (AGS-89090402), and glioblastoma (A172-88062428) cells were cultured in appropriate media according to the European Collection of Authenticated Cell Cultures (ECACC) recommendation. To all media (except for RPTEC), 2.5 µg mL^−1 amphotericin B, 100 U mL^−1 penicillin, and 100 µg mL^−1 streptomycin were added. In addition, the RPTEC cell line was cultured in media with 30 μg mL^−1 gentamicin and 15 ng mL^−1 amphotericin B. Cell cultures were incubated at 37 °C in a humidified atmosphere with 5% CO2 for at least three passages until performing experiments. All cell lines were grown in monolayers; thus, detachment with 0.25% trypsin solution was required for further assays.
The cells were put in 96-well plates (1 × 10^5 cells per mL) of appropriate culture medium (100 µL per well). Before a general experiment, cells were attached for 24 h and then treated with various concentrations (500, 250, 100, and 10 µM) of pyrimidine derivatives and subsequently grown in 200 µL medium volume. […]. The cells were incubated for 24, 48, and 72 h at 37 °C in a humidified 5% CO2/95% air incubator. The neutral red uptake assay was performed according to Repetto et al.. This method uses the ability of the living cells to accumulate dye in their lysosomes. Briefly, at the end of each incubation time the cells were treated with neutral red solution (40 µg mL^−1) for 2 h at 37 °C. Afterwards, the cells were washed with PBS, and the incorporated dye was solubilized with the extraction solution (50% ethanol, 49% H2O, 1% glacial acetic acid). The plates were gently shaken for 30 min at 37 °C. Finally, the absorbance was measured at 540 nm using a Thermo Scientific™ Multiskan™ GO Microplate Spectrophotometer (Thermo Fisher).
as §3, with “www.graphpad.com. A p-value < 0.05 was considered statistically significant. All results were compared with the control with 1% DMSO, which was considered to be 100%.” for “www.graphpad.com.”

Acinetobacter baumannii = experiment: Antimicrobial activity, broth microdilution MIC; format: cell-based; conditions: tested 256 to 0.5 µg mL^−1, 24 h, '-' not defined, no MIC in tested range
Enterococcus faecalis = experiment: Antimicrobial activity, broth microdilution MIC; format: cell-based; conditions: tested 256 to 0.5 µg mL^−1, 24 h, '-' not defined, no MIC in tested range, read-out: MIC E. faecalis
[3] = tested on: methicillin-resistant Staphylococcus aureus (MRSA); experiment: Antimicrobial activity, broth microdilution MIC; format: cell-based; conditions: tested 256 to 0.5 µg mL^−1, 24 h, '-' not defined, no MIC in tested range
Escherichia coli = experiment: Antimicrobial activity, broth microdilution MIC; format: cell-based; conditions: tested 256 to 0.5 µg mL^−1, 24 h, '-' not defined, no MIC in tested range
Klebsiella pneumoniae = experiment: Antimicrobial activity, broth microdilution MIC; format: cell-based; conditions: tested 256 to 0.5 µg mL^−1, 24 h, '-' not defined, no MIC in tested range, read-out: MIC K. pneumoniae
Pseudomonas aeruginosa = experiment: Antimicrobial activity, broth microdilution MIC; format: cell-based; conditions: tested 256 to 0.5 µg mL^−1, 24 h, '-' not defined, no MIC in tested range, read-out: MIC P. aeruginosa

Structure (SMILES)	pIC50 (HeLa)	pIC50 (HepaRG; Homo sapiens, HepaRG, 72 h)	pIC50 (Caco-2)	pIC50 (AGS)	pIC50 (A172)	melting point [°C]	other results
Cc1nc(-c2ccccc2)nc(SCc2ccc(Cl)cc2)c1C [4-[(4-chlorobenzyl)sulfanyl]-5,6-dimethyl-2-phenylpyrimidine]							survival of normal human endothelial cells [1]: 58%
Cc1nc(-c2ccccc2)nc(SCc2ccc(Cl)cc2)c1CO [5-hydroxymethyl derivative]							survival of normal human endothelial cells [1]: 1%; pIC50 (cancer cell lines): 4.42 to 4.77
Cc1nc(-c2ccccc2)nc(SCc2ccccc2)c1CO [Compound 3a, [4-(benzylsulfanyl)-6-methyl-2-phenylpyrimidin-5-yl]methanol]	< 3.60	3.70	< 3.60	3.68	< 3.60	144 to 145	MIC (Candida albicans): 256 µg/mL (≈ 794 µM)
Cc1ccccc1CSc1nc(-c2ccccc2)nc(C)c1CO [Compound 3b, (4-methyl-6-{[(2-methylphenyl)methyl]sulfanyl}-2-phenylpyrimidin-5-yl)methanol]						147	viability at 72 h, 10 µM [2]: 91%; viability at 72 h, 100 µM [2]: 44%; viability at 72 h, 250 µM [2]: 46%; viability at 72 h, 500 µM [2]: 34%
Cc1nc(-c2ccccc2)nc(N)c1CO [Compound 3c, (4-amino-6-methyl-2-phenylpyrimidin-5-yl)methanol]	< 3.60	< 3.60	< 3.60	< 3.60	< 3.60	177 to 178	
CCNc1nc(-c2ccccc2)nc(C)c1CO [Compound 3d, [4-(ethylamino)-6-methyl-2-phenylpyrimidin-5-yl]methanol]	< 3.60	< 3.60	< 3.60	< 3.60	< 3.60	191	
CCCNc1nc(-c2ccccc2)nc(C)c1CO [Compound 3e, [4-methyl-2-phenyl-6-(propylamino)pyrimidin-5-yl]methanol]	< 3.60	< 3.60	< 3.60	< 3.60	< 3.60	158 to 159	MIC (Acinetobacter baumannii): 256 µg/mL (≈ 995 µM); MIC (Enterococcus faecalis): 256 µg/mL (≈ 995 µM)
C=CCNc1nc(-c2ccccc2)nc(C)c1CO [Compound 3f, {4-methyl-2-phenyl-6-[(prop-2-en-1-yl)amino]pyrimidin-5-yl}methanol]	< 3.60	< 3.60	< 3.60	< 3.60	< 3.60	174 to 175	MIC [3]: 256 µg/mL (≈ 1000 µM)
Cc1nc(-c2ccccc2)nc(NC(C)C)c1CO [Compound 3g, {4-methyl-2-phenyl-6-[(propan-2-yl)amino]pyrimidin-5-yl}methanol]	3.68	3.74	< 3.60	< 3.60	3.83	160	MIC (Acinetobacter baumannii): 256 µg/mL (≈ 995 µM); MIC (Escherichia coli): 128 µg/mL (≈ 497 µM)
Cc1nc(-c2ccccc2)nc(NC(C)(C)C)c1CO [Compound 3h, [4-(tert-butylamino)-6-methyl-2-phenylpyrimidin-5-yl]methanol]	< 3.60	3.88	< 3.60	< 3.60	< 3.60	173 to 174	pIC50 (HepaRG): 3.88; MIC (Acinetobacter baumannii): 256 µg/mL (≈ 943 µM)
Cc1nc(-c2ccccc2)nc(NCCO)c1CO [Compound 3i, 2-{[5-(hydroxymethyl)-6-methyl-2-phenylpyrimidin-4-yl]amino}ethan-1-ol]	< 3.60	< 3.60	< 3.60	< 3.60	< 3.60	141	
Cc1nc(-c2ccccc2)nc(NC2CCCCC2)c1CO [Compound 3j, [4-(cyclohexylamino)-6-methyl-2-phenylpyrimidin-5-yl]methanol]						143	viability at 72 h, 10 µM [2]: 89%; viability at 72 h, 100 µM [2]: 28%; viability at 72 h, 250 µM [2]: 70%; viability at 72 h, 500 µM [2]: 16%
CNC(C)C1CCC(N)C(OC2C(N)CC(N)C(OC3OCC(C)(O)C(NC)C3O)C2O)O1 (stereo not drawn) [Gentamicin, reference compound]							MIC (Escherichia coli): 2 µg/mL (≈ 4.19 µM); MIC (Klebsiella pneumoniae): 2 µg/mL (≈ 4.19 µM)
C[C@H]1COc2c(N3CCN(C)CC3)c(F)cc3c(=O)c(C(=O)O)cn1c23 [Levofloxacin, reference compound]							MIC (Acinetobacter baumannii): 0.5 µg/mL (≈ 1.38 µM); MIC (Pseudomonas aeruginosa): 1 µg/mL (≈ 2.77 µM); MIC (Enterococcus faecalis): 4 µg/mL (≈ 11.1 µM); MIC [3]: 1 µg/mL (≈ 2.77 µM)

From PMC8618934, “Synthesis, Crystal Structure, and Biological Evaluation of Novel 5-Hydroxymethylpyrimidines” (Materials, 2021)
